Experimental data: PMC5392334, “Discovery and characterization of a novel irreversible EGFR mutants selective and potent kinase inhibitor CHMFL-EGFR-26 with a distinct binding mode” (Oncotarget, 2017)

What was measured:
Test in all cases: KinomeScan
Format in all cases: binding
Conditions in all cases: read-out: % control
PHKG2 = target: T1, PHKG2 (Homo sapiens, UniProt P15735)
T1 construct: purchased DiscoveRx KINOMEscan

JNK2 = target: T2, JNK2 (Homo sapiens, UniProt P45984)
T2 construct: purchased DiscoveRx KINOMEscan
T2 sequence (P45984 whole entry): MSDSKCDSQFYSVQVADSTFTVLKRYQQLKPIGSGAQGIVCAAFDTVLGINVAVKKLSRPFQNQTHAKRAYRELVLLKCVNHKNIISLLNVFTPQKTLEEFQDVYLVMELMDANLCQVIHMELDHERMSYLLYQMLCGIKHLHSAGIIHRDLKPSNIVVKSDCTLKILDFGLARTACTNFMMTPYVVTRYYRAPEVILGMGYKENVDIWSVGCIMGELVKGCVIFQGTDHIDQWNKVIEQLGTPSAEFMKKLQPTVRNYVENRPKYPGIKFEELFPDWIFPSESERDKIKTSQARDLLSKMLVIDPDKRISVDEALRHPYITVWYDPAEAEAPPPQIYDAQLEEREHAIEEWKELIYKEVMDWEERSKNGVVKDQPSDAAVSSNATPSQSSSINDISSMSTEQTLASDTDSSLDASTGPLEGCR

CSNK1G3 = target: T3, CSNK1G3 (Homo sapiens, UniProt Q9Y6M4)
T3 construct: purchased DiscoveRx KINOMEscan
T3 sequence (Q9Y6M4 whole entry): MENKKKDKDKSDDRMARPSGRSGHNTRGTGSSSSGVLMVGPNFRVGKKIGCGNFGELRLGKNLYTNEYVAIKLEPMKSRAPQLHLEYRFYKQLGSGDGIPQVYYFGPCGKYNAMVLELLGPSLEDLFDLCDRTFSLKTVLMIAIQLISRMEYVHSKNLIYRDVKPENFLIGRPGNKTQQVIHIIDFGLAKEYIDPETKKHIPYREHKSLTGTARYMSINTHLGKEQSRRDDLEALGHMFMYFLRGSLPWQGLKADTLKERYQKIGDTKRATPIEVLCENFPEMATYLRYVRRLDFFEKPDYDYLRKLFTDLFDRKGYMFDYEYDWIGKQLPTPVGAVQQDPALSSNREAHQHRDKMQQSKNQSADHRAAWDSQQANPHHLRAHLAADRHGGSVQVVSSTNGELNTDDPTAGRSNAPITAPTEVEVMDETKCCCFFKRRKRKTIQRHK

ERK5 = target: T4, ERK5 (Homo sapiens, UniProt Q13164)
T4 construct: purchased DiscoveRx KINOMEscan
T4 sequence (Q13164 whole entry): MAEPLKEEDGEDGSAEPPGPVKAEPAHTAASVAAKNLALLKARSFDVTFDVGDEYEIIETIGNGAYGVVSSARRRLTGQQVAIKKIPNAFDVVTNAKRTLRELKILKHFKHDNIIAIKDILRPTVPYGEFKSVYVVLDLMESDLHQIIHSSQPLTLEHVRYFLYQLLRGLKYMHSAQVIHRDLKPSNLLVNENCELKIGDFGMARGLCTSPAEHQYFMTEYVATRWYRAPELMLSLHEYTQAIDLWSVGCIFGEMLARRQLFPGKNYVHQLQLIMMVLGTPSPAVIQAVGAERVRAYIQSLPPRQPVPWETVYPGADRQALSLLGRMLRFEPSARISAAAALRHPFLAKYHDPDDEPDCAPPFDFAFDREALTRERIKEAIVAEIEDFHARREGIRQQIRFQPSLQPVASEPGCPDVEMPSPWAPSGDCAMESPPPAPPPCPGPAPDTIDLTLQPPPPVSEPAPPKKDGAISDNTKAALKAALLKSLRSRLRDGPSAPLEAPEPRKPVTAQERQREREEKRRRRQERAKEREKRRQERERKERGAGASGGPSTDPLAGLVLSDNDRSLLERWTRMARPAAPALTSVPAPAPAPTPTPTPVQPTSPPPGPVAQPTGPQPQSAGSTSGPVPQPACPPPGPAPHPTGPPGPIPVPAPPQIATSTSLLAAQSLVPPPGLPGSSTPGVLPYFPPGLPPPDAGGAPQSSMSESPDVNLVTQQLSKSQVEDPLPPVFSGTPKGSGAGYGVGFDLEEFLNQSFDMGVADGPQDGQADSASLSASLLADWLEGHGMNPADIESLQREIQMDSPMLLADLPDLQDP

MAP4K2 = target: T5, MAP4K2 (Homo sapiens, UniProt Q12851)
T5 construct: purchased DiscoveRx KINOMEscan

TAOK2 = target: T6, TAOK2 (Homo sapiens, UniProt Q9UL54)
T6 construct: purchased DiscoveRx KINOMEscan
T6 sequence (Q9UL54 whole entry): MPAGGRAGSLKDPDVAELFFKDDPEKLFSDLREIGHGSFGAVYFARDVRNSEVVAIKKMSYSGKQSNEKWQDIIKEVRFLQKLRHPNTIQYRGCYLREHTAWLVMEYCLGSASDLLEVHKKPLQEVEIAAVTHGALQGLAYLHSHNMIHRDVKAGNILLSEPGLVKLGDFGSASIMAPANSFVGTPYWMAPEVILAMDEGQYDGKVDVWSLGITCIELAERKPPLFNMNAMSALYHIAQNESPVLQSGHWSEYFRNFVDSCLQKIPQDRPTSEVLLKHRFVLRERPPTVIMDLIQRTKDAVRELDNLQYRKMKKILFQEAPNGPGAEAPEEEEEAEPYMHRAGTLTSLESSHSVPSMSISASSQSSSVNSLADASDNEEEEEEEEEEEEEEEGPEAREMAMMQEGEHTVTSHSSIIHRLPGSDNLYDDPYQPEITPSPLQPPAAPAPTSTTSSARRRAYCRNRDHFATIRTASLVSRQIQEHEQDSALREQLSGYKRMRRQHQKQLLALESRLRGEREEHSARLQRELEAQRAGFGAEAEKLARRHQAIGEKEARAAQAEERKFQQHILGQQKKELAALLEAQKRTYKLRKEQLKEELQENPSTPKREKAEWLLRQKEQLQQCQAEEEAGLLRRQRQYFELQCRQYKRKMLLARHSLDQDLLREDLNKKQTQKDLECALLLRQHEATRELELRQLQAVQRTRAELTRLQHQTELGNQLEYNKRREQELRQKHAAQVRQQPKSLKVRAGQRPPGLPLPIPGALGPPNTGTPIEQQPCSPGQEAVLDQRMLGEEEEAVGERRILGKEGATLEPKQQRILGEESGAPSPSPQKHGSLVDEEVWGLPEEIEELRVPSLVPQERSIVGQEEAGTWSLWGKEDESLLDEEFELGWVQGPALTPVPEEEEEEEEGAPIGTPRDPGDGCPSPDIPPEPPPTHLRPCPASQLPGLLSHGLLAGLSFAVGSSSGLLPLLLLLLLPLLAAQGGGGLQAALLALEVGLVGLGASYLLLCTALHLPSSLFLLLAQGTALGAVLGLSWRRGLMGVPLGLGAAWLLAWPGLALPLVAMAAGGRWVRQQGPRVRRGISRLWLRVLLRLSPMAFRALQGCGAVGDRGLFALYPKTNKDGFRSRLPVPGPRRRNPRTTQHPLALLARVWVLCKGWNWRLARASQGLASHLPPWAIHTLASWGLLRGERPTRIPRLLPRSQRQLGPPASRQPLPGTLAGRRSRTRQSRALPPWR

TSSK1B = target: T7, TSSK1B (Homo sapiens, UniProt Q9BXA7)
T7 construct: purchased DiscoveRx KINOMEscan
T7 sequence (Q9BXA7 whole entry): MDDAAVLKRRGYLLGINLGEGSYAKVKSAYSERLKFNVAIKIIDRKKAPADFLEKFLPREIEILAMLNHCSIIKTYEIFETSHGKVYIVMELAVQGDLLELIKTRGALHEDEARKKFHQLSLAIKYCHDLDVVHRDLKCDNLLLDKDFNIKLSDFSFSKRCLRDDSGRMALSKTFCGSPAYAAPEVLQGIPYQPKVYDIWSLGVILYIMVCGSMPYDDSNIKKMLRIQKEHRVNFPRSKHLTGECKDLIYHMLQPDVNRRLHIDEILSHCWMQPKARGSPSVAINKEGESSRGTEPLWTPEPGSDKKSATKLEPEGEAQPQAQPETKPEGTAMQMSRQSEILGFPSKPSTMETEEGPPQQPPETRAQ

PKAC-alpha = target: T8, PKAC-alpha (Homo sapiens, UniProt P17612)
T8 construct: purchased DiscoveRx KINOMEscan

EPHB6 = target: T9, EPHB6 (Homo sapiens, UniProt O15197)
T9 construct: purchased DiscoveRx KINOMEscan
T9 sequence (O15197 32-1021): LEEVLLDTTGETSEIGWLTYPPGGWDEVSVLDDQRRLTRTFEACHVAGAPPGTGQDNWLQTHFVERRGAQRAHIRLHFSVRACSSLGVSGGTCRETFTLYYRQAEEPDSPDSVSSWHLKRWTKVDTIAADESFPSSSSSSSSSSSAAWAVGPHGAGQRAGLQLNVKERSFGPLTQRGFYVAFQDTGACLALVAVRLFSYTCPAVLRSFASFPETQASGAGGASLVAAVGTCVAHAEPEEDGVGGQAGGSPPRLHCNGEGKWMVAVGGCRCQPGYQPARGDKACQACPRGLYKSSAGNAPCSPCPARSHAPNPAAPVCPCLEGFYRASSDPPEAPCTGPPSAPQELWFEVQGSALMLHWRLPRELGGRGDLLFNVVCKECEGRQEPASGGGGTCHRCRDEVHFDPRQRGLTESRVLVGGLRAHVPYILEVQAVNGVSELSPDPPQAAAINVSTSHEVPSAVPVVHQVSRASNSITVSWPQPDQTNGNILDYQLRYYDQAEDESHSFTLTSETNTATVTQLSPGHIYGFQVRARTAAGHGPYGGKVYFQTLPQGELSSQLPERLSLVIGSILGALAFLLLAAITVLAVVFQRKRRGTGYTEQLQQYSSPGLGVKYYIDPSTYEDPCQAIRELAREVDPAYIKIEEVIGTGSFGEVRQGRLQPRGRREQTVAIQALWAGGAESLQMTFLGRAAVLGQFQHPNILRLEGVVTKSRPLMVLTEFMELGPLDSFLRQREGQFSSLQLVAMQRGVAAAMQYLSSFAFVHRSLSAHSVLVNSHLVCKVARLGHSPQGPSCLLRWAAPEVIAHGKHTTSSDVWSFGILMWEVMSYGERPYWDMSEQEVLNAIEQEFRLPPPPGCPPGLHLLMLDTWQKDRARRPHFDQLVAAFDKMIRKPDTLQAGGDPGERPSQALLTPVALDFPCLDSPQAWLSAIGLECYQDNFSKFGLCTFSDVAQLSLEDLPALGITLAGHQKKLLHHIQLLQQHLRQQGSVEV

T1 sequence (P15735 whole entry): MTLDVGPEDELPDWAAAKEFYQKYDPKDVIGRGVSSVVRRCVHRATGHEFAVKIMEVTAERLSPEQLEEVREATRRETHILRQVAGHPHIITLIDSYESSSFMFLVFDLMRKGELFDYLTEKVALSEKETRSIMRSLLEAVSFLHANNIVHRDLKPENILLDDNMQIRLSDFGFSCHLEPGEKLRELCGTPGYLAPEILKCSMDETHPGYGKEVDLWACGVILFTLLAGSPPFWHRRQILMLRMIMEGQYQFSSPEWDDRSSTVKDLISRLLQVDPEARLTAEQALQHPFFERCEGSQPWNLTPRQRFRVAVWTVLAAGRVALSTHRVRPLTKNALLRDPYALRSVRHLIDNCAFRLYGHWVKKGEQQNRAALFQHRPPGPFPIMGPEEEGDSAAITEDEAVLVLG

Work on `C=CC(=O)N1CCC[C@@H](n2nc(-c3ccc(OCc4cccc(C)n4)c(Cl)c3)c3c(N)ncnc32)C1` [CHMFL-EGFR-26] yielded a remaining binding at 1 µM (PHKG2) of 100%, a remaining binding at 1 µM (JNK2) of 59% and a remaining binding at 1 µM (CSNK1G3) of 98%. The remaining binding at 1 µM (ERK5) was 100%, the remaining binding at 1 µM (MAP4K2) was 100% and the remaining binding at 1 µM (TAOK2) was 78%. The remaining binding at 1 µM (TSSK1B) was 89%, the remaining binding at 1 µM (PKAC-alpha) was 100% and the remaining binding at 1 µM (EPHB6) was 82%.
